From patent US7196104B2, “Thiazolyl urea compounds and methods of uses” (Amgen, Inc., priority 2000, dated 2007)

Row | melting point [°C] | SMILES
1 | 233 to 235 | O=C(Nc1ccccn1)Nc1csc(-c2ccccn2)n1 [Example 5, N-[2-(2-Pyridinyl)-4-thiazolyl]-N′-2-pyridinylurea]
2 | 204 to 206 | CCCc1cccc(NC(=O)Nc2csc(-c3ccnc(CC)c3)n2)n1 [Example 14, N-[2-(2-Ethyl-4-pyridinyl)-4-thiazolyl]-N′-2-(6-propylpyridinyl)urea]
3 | 228 to 230 | Cc1ccc(NC(=O)Nc2csc(-c3ccccn3)n2)nc1 [Example 38, N-[2-(2-Pyridinyl)-4-thiazolyl]-N′-2-(5-methylpyridinyl)urea]
4 | 213 to 215 | CCc1cccc(NC(=O)Nc2csc(-c3ccccn3)n2)n1 [Example 44, N-[2-(2-Pyridinyl)-4-thiazolyl]-N′-2-(6-ethylpyridinyl)urea]
5 | 196 to 198 | CCc1ccnc(NC(=O)Nc2csc(-c3ccccn3)n2)c1 [Example 50, N-[2-(2-Pyridinyl)-4-thiazolyl]-N′-2-(4-ethylpyridinyl)urea]
6 | 210 to 212 | CCCc1cccc(NC(=O)Nc2csc(-c3ccccn3)n2)n1 [Example 51, N-[2-(2-Pyridinyl)-4-thiazolyl]-N′-2-(6-propylpyridinyl)urea]

Second part, the molecule before the results:

Row | SMILES | melting point [°C]
7 | CN1CCN(c2cccc(NC(=O)Nc3csc(-c4ccncc4)n3)n2)CC1 [Example 31, N-[2-(4-Pyridinyl)-4-thiazolyl]-N′-2-[6-(1-methyl-4-piperazinyl)pyridinyl]urea] | 251 to 253
8 | O=C(Nc1cccc(NCCCN2CCOCC2)n1)Nc1csc(-c2ccncc2)n1 [Example 33] | 215 to 217
9 | NC(=O)c1ccc(NC(=O)Nc2csc(-c3ccncc3)n2)nc1 [Example 34, [[(2-(4-Pyridinyl)-4-thiazolylamino)carbonyl]amino]-2-pyridinyl-5-carboxamide] | 255 to 257
10 | CN(C)CCNc1cccc(NC(=O)Nc2csc(-c3ccncc3)n2)n1 [Example 35, N-[2-(4-Pyridinyl)-4-thiazolyl]-N′-2-[6-(N″,N″-aminoethylamino)pyridinyl]urea] | 210 to 212
11 | CC(C)(C)c1cc(NC(=O)Nc2csc(-c3cccnc3)n2)no1 [Example 37, N-[2-(3-Pyridinyl)-4-thiazolyl]-N′-[5-(1,1-dimethylethyl)-3-isoxazolyl]urea] | 230 to 232
12 | Cc1cc(C)nc(NC(=O)Nc2csc(-c3ccccn3)n2)c1 [Example 40, N-[2-(2-Pyridinyl)-4-thiazolyl]-N′-2-(4,6-dimethylpyridinyl)urea] | 232 to 234
13 | Cc1ccc2nc(NC(=O)Nc3csc(-c4ccccn4)n3)sc2c1 [Example 41, N-[2-(2-Pyridinyl)-4-thiazolyl]-N′-2-(6-methylbenzthiazolyl)urea] | 263 to 265
14 | Cc1ccnc(NC(=O)Nc2csc(-c3ccccn3)n2)c1 [Example 42, N-[2-(2-Pyridinyl)-4-thiazolyl]-N′-2-(4-methylpyridinyl)urea] | 217 to 219
15 | CCCc1cccc(NC(=O)Nc2csc(-c3ccc(OC)cc3)n2)n1 [Example 45, N-[2-(4-Methoxyphenyl)-4-thiazolyl]-N′-2-(6-propylpyridinyl)urea] | 223 to 225
16 | CCCc1cccc(NC(=O)Nc2csc(-c3ccc(O)cc3)n2)n1 [Example 46, N-[2-(4-Hydroxyphenyl)-4-thiazolyl]-N′-2-(6-propylpyridinyl)urea] | 227 to 229
17 | CCCc1cccc(NC(=O)Nc2csc(-c3cccc(OC)c3)n2)n1 [Example 47, N-[2-(3-Methoxyphenyl)-4-thiazolyl]-N′-2-(6-propylpyridinyl)urea] | 192 to 194
18 | COc1cccc(-c2nc(NC(=O)Nc3ccccn3)cs2)c1 [Example 48, N-[2-(3-Methoxyphenyl)-4-thiazolyl]-N′-2-pyridinylurea] | 201 to 203
19 | CCCc1cccc(NC(=O)Nc2cccc(-c3ccncc3)c2)n1 [Example 54, N-[3-(4-Pyridinyl)phenyl]-N′-2-(6-propylpyridinyl)urea] | 195 to 198
